Assay [1] has as its target T1, P-Selectin (Homo sapiens, UniProt P16109).
T1 construct: endogenous in cells
T1 sequence (P16109 42-830): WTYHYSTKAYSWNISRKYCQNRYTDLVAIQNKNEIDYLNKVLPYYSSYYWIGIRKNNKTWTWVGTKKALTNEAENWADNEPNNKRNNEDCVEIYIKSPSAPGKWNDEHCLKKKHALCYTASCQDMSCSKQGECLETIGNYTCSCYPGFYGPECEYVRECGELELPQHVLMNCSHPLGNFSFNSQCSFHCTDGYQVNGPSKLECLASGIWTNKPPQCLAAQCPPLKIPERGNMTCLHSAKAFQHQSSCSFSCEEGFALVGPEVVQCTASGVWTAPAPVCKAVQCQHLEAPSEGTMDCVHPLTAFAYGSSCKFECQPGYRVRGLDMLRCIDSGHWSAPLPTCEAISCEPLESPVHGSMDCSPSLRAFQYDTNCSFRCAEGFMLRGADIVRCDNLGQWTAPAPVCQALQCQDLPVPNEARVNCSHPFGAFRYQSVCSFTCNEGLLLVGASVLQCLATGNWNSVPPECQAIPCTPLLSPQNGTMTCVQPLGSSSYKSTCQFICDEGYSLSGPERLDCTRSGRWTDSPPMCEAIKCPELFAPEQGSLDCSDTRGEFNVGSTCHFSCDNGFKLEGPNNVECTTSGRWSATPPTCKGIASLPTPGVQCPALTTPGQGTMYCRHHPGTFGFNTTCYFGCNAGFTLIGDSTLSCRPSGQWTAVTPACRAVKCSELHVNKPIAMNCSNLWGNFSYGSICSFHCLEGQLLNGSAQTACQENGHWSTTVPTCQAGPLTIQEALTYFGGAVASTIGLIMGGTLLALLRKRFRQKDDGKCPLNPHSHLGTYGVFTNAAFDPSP
Put plainly: Inhibition of neutrophil adhesion to thrombin activated platelets by glycolipids in liposomes. It counts as cell-based. Particulars: for IC50: read-out: AMOUNT REQUIRED FOR 50% INHIBITION
How it is done: 3. For the assay, 20 μl of the platelet suspension (2×10^8 /ml) was placed in a microcentrifuge tube. […] Twenty μl of the neutrophil preparation (2×10^6 /ml) was then added and the tubes were allowed to stand for a further 20 min at room temperature.
(§1) 4. Adhesion of activated platelets to the neutrophils was assessed microscopically. One hundred neutrophils were evaluated. They were scored as positive if 2 or more platelets were attached and negative if less than 2 platelets were bound. The percent of cells with 2 or more bound platelets was calculated.
This example describes experiments testing various glycolipid structures on liposomes. In particular, SY2, a sialylated polysaccharide in which the fucose, instead of being attached to the ultimate GlcNAc as in SLe^x, is attached to the penultimate GlcNAc, was tested. Platelets and neutrophils were isolated by the methods described above. Platelets were activated with thrombin and then incubated with dilutions of various glycolipids embedded in liposomes prepared as described above. Neutrophils were added and the effect of the glycolipids on the adhesion of neutrophils to activated platelets was determined.
Structures of the various glycolipids examined are as follows: SDiY2, NeuGcα2,3Galβ1,4(Fucα1,3)GlcNacβ1,3Galβ1,4 (Fucα1,3)GlcNAcβ1,3Galβ1,4Glcβ1,1Cer; SLe^x, NeuGcα2,3Galβ1,4 (Fucα1,3)GlcNAcβ1,3Galβ1,4Glcβ1,1Cer; SY2, NeuGcα2,3Galβ1,4 GlcNAcβ1,3Galβ1,4(Fucα1,3)GlcNAcβ1,3Galβ1,4Glcβ1,1Cer; SH, NeuGcα2,3Galβ1,4GlcNAcβ1,3Galβ1,4GlcNAcβ1,3Galβ1,4Glcβ1,1Cer; SPG, NeuGcα2,3Galβ1,4GlcNAcβ1,3Galβ1,4Glcβ1,1Cer.
All materials were prepared as described above. Platelets and neutrophils were isolated by the methods described. Platelets were activated with thrombin and then incubated with dilutions of various glycolipids contained in liposomes. Neutrophils were added and the effect of the glycolipids on the adhesion of neutrophils to activated platelets was determined.
The results of an experiment in which synthetic SLe^x (NeuAc) and a preparation of SLe^x prepared by enzymatic fucosylation of sialylparagloboside purified from bovine erythrocytes, SLe^x (NeuGc), were directly compared are shown in Table 4.

Assay [2] addresses T1, P-Selectin. Put plainly: Oligosaccharide/polysaccharide inhibition of neutrophil adhesion to thrombin activated platelets. It counts as cell-based. The method, then: Briefly, platelets and neutrophils were isolated by the methods described above. Platelets were activated with thrombin and then incubated with dilutions of various oligosaccharides. Neutrophils were added, and the effect of the saccharides on the adhesion of neutrophils to activated platelets was determined.
1. Platelets were isolated as described above and were activated (2×10^8 /ml) by incubation for 20 min at room temperature with thrombin at a final concentration of 0.25 U/ml.
2. Neutrophils were isolated by layering heparinized blood over Mono-Poly Resolving Medium (Ficoll-Hypaque-Flow Laboratories), followed by centrifugation for 25 min at 2000 rpm and then, a further 25 min at 2500 rpm as described above.
3. For the assay, 20 μl of the platelet suspension (2×10^8 /ml) was placed in a microcentrifuge tube. An equal volume of the oligosaccharide preparations at concentrations from 200 μg/ml to 0.3 μg/ml, or of glycolipid-liposome preparations (prepared as described above), at concentrations from 2 μg/ml to 0.25 μg/ml, was added and the tubes were allowed to stand at room temperature for 20 min. Twenty μl of the neutrophil preparation (2×10^6 /ml) was then added and the tubes were allowed to stand for a further 20 min at room temperature.
as §1
Briefly, platelets and neutrophils were isolated by the methods described above. Platelets were activated with thrombin and then incubated with dilutions of various oligosaccharides. Neutrophils were added and the effect of the saccharides on the adhesion of neutrophils to activated platelets was determined.
Platelets were isolated as described above and were activated (2×10^8 /ml) by incubation for 20 min at room temperature with thrombin at a final concentration of 0.25 U/ml.
Neutrophils were isolated by layering heparinized blood over Mono-Poly Resolving Medium (Ficoll-Hypaque, Flow Laboratories), followed by centrifugation for 25 min at […] and then, a further 25 min at 2500 rpm as described above.
For the assay, 20 μl of the platelet suspension (2×10^8 /ml) was placed in an Eppendorf centrifuge tube. An equal volume of the oligosaccharide preparations at concentrations from 500 μg/ml to 2.0 μg/ml was added and the tubes were allowed to stand at room temperature for 20 min. Twenty […] of the neutrophil preparation (2×10^6 /ml) was then added and the tubes were allowed to stand for a further 20 min at room temperature.
Adhesion of activated platelets to the neutrophils was assessed microscopically. One hundred neutrophils were evaluated. They were scored as positive if 2 or more platelets were attached and negative if less than 2 platelets were bound. The percent of cells with 2 or more bound platelets was calculated.

Where [3] appears, read: Table 3, experiment not specified.

Seven compounds from US5753631A, “Intercellular adhesion mediators” (Cytel Corporation, priority 1995, dated 1998) can be followed below.

Take `CC(=O)N[C@H]1[C@H]([C@H](O)[C@H](O)CO)O[C@@](O[C@H]2[C@@H](O)[C@@H](CO)O[C@@H](O[C@H]3[C@H](O[C@@H]4O[C@@H](C)[C@@H](O)[C@@H](O)[C@@H]4O)[C@@H](NC(C)=O)C(O)O[C@@H]3CO)[C@@H]2O)(C(=O)O)C[C@@H]1O` (some centres unmarked) [SLe^x (NeUAc)]: the IC50 at P-Selectin [1] (Table 4) came to 670 nM.

Take `CC(=O)N[C@H]1[C@H]([C@H](O)[C@H](O)CO)O[C@@](O[C@H]2[C@@H](O)[C@@H](CO)O[C@@H](O[C@H]3[C@H](O[C@@H]4O[C@@H](C)[C@@H](O)[C@@H](O)[C@@H]4O)[C@@H](NC(C)=O)C(O)O[C@@H]3CO)[C@@H]2O)(C(=O)O)C[C@@H]1O` (some centres unmarked) [SLe^x (tetra), NeuAcα2,3Galβ1,4 (Fucα1,3)GlcNAc]: on P-Selectin [2] (Table 2, mean of three identical experiments, read-out: AMOUNT REQUIRED FOR 50% INHIBITION (converted)), the IC50 was 54000 nM. Further, the “times more required for 50% inhibition than of the SLe^x-hexasaccharide” value at P-Selectin [2] (tetrasaccharide versus hexasaccharide) is on record as “approximately 20 times”. On to `CC(=O)N[C@H]1[C@H](O[C@H]2[C@@H](O)[C@@H](CO)O[C@@H](O[C@H]3[C@H](O)[C@@H](O)C(OCC[Si](C)(C)C)O[C@@H]3CO)[C@@H]2O)O[C@H](CO)[C@@H](O[C@@H]2O[C@H](CO)[C@H](O)[C@H](O[C@]3(C(=O)O)C[C@H](O)[C@@H](NC(C)=O)[C@H]([C@H](O)[C@H](O)CO)O3)[C@H]2O)[C@@H]1O[C@@H]1O[C@@H](C)[C@@H](O)[C@@H](O)[C@@H]1O` (some centres unmarked) [SLe^x Hexasaccharide], for which the IC50 at P-Selectin [2] (read-out: AMOUNT REQUIRED FOR 50% INHIBITION, Table 6) is 6420 nM; at P-Selectin [2] (read-out: amount for 50% inhibition of P-Selectin mediated binding of neutrophils to thrombin activated platelets, Table 6), 6420 nM. With “NeuGcα2,3Galβ1,4 GlcNAcβ1,3Galβ1,4(Fucα1,3)GlcNAcβ1,3Galβ1,4Glcβ1,1Cer [SY2]”, the IC50 at P-Selectin [1] (Table 3, Exp 1) stood at 325 nM; at P-Selectin [1] (Table 3, Exp 2) it was 345 nM. The “inhibition of P-Selectin mediated adhesion of neutrophils to thrombin activated platelets” value against P-Selectin [1] (in words, relative) is “equally as well as did SLe^x and SDiY2”. For “NeuGcα2,3Galβ1,4(Fucα1,3)GlcNacβ1,3Galβ1,4 (Fucα1,3)GlcNAcβ1,3Galβ1,4Glcβ1,1Cer [SdiY2]”, the IC50 on P-Selectin [1] (setting [3]) worked out at 360 nM. Consider “NeuGcα2,3Galβ1,4GlcNAcβ1,3Galβ1,4GlcNAcβ1,3Galβ1,4Glcβ1,1Cer [SH, reference compound]”, for which the “AMOUNT REQUIRED FOR 50% INHIBITION” value at P-Selectin [1] (setting [3]) is recorded as “No Inh”. For the compound “NeuGcα2,3Galβ1,4GlcNAcβ1,3Galβ1,4Glcβ1,1Cer [SPG, reference compound]”, the “AMOUNT REQUIRED FOR 50% INHIBITION” value at P-Selectin [1] (setting [3]) is recorded as “No Inh”.
